According to US20210299098A1, “SELECTIVE ESTROGEN RECEPTOR MODULATOR FOR TREATMENT OF PANCREATIC CANCER” (CIPLA LIMITED, priority 2020, published 2021):

Legend:
[1] = system: SW1990 pancreatic cancer cell line; experiment: CellTiter-Blue cell viability assay, SW1990; format: cell-based; details: Homo sapiens, 96 hours treatment
Procedure: (§1) The in vitro anti-tumor activity of levormeloxifene or its pharmaceutically acceptable salt was evaluated in six human pancreatic cancer cell lines: AsPc 1 (A), BxPC3 (B), Miapaca2 (C), Panc 10.05 (D), SW1990 (E) and Panc 1 (F). AsPc 1 (A), BxPC3 (B), Miapaca2 (C), Panc 10.05 (D), SW1990 (E) and Panc 1 (F) were established at Oncotest from the corresponding human patient derived xenograft. CAPAN-2, HUP-T3 and PA-TU-8902 were purchased from DSMZ (Braunschweig, Germany). PANC-1 was purchased from CLS Cell Line Services GmbH (Eppelheim, Germany). BxPC-3, HPAC and MIA-Pa-Ca-2 were purchased from ATCC (Rockville, Md., USA). Authenticity of cell lines was confirmed at the DSMZ by STR (short tandem repeat) analysis, a PCR based DNA-fingerprinting methodology. Cell lines were routinely passaged once or twice weekly and maintained in culture for up to 20 passages. […] Briefly, cells were harvested from exponential phase cultures, counted and plated in 96-well flat-bottom microtiter plates at a cell density of 6,000-20,000 cells/well depending on the cell line's growth rate. […] Following an incubation period of up to four hours, fluorescence (FU) was measured by using the Enspire Multimode Plate Reader (excitation λ=531 nm, emission λ=615 nm). […]

[2] = system: AsPc 1 pancreatic cancer cell line; experiment: CellTiter-Blue cell viability assay, AsPC1; format: cell-based; details: Homo sapiens, 96 hours treatment
Procedure: as §1

estrogen receptor = details: according to literature; cited from earlier work
[3] = system: Panc 10.05 pancreatic cancer cell line; experiment: CellTiter-Blue cell viability assay, Panc10.05; format: cell-based; details: Homo sapiens, Panc1005; Panc10.05 cell line; 96 hours treatment
Procedure: as §1

[4] = system: Miapaca2 pancreatic cancer cell line; experiment: CellTiter-Blue cell viability assay, Miapaca2; format: cell-based; details: Homo sapiens, MIA PaCa-2; Miapaca1 cell line as printed; 96 hours treatment
Procedure: as §1

[5] = system: BxPC3 pancreatic cancer cell line; experiment: CellTiter-Blue cell viability assay, BxPC3; format: cell-based; details: Homo sapiens, BXPC-3, 96 hours treatment
Procedure: as §1

[6] = system: human pancreatic cancer cell lines; experiment: CellTiter-Blue cell viability assay, panel of pancreatic cancer cell lines; format: cell-based
Procedure: The in vitro anti-tumor activity of levormeloxifene or its pharmaceutically acceptable salt was evaluated in six human pancreatic cancer cell lines: AsPc 1 (A), BxPC3 (B), Miapaca2 (C), Panc 10.05 (D), SW1990 (E) and Panc 1 (F).
AsPc 1 (A), BxPC3 (B), Miapaca2 (C), Panc 10.05 (D), SW1990 (E) and Panc 1 (F) were established at Oncotest from the corresponding human patient derived xenograft. CAPAN-2, HUP-T3 and PA-TU-8902 were purchased from DSMZ (Braunschweig, Germany). PANC-1 was purchased from CLS Cell Line Services GmbH (Eppelheim, Germany). BxPC-3, HPAC and MIA-Pa-Ca-2 were purchased from ATCC (Rockville, Md., USA). Authenticity of cell lines was confirmed at the DSMZ by STR (short tandem repeat) analysis, a PCR based DNA-fingerprinting methodology. Cell lines were routinely passaged once or twice weekly and maintained in culture for up to 20 passages. […]
The CellTiter-Blue® Cell Viability Assay (#G8081, Promega) was used according to manufacturer's instructions. Briefly, cells were harvested from exponential phase cultures, counted and plated in 96-well flat-bottom microtiter plates at a cell density of 6,000-20,000 cells/well depending on the cell line's growth rate. […] Following an incubation period of up to four hours, fluorescence (FU) was measured by using the Enspire Multimode Plate Reader (excitation λ=531 nm, emission λ=615 nm). […]

[7] = system: Panc 1 pancreatic cancer cell line; experiment: CellTiter-Blue cell viability assay, Panc1; format: cell-based; details: Homo sapiens, 96 hours treatment
Procedure: as §1

HPAC cell line = experiment: CellTiter-Blue cell viability assay, HPAC; format: cell-based; details: Homo sapiens, most resistant cell line, read-out: individual IC50
From the text: as §1, with “AsPc” for “The in vitro anti-tumor activity of levormeloxifene or its pharmaceutically acceptable salt was evaluated in six human pancreatic cancer cell lines: AsPc 1 (A), BxPC3 (B), Miapaca2 (C), Panc 10.05 (D), SW1990 (E) and Panc 1 (F). AsPc”, “passages. All cells were grown at 37° C. in a humidified atmosphere with 5% CO2 in RPMI 1640 medium (25 mM HEPES, with L-glutamine, #FG1385, Biochrom, Berlin, Germany) supplemented with 10% (v/v) fetal calf serum (Sigma, Taufkirchen, Germany) and 0.1 mg/mL gentamicin (Life Technologies, Karlsruhe, Germany).” for “passages.”

PA-TU-8902 cell line = experiment: CellTiter-Blue cell viability assay, PA-TU-8902; format: cell-based; details: Homo sapiens, PaTu 8902; PA-TU-8902, text value; read-out: individual IC50
From the text: as §1, with “AsPc” for “The in vitro anti-tumor activity of levormeloxifene or its pharmaceutically acceptable salt was evaluated in six human pancreatic cancer cell lines: AsPc 1 (A), BxPC3 (B), Miapaca2 (C), Panc 10.05 (D), SW1990 (E) and Panc 1 (F). AsPc”, “passages. All cells were grown at 37° C. in a humidified atmosphere with 5% CO2 in RPMI 1640 medium (25 mM HEPES, with L-glutamine, #FG1385, Biochrom, Berlin, Germany) supplemented with 10% (v/v) fetal calf serum (Sigma, Taufkirchen, Germany) and 0.1 mg/mL gentamicin (Life Technologies, Karlsruhe, Germany).” for “passages.”

[8] = used as oral contraceptive; cited from earlier work

| IC50 [1] | IC50 [2] | IC50 [3] | IC50 [4] | IC50 [5] | IC50 [7] | SMILES | receptor affinity relative to the D-isomer (estrogen receptor) | difference between the most sensitive and most resistant cell line ([6]; HUP-T3 vs HPAC IC50) | activity in all cell lines tested (concentration-effect curves) ([6]; sigmoidal concentration-effect curves) | IC50 (HPAC cell line) | IC50 (PA-TU-8902 cell line) | half-life [8] |
| --- | --- | --- | --- | --- | --- | --- | --- | --- | --- | --- | --- | --- |
| 27 µM | 18 µM | 24 µM | 22 µM | 21 µM | 24 µM | COc1ccc2c(c1)OC(C)(C)[C@@H](c1ccccc1)[C@@H]2c1ccc(OCCN2CCCC2)cc1 [levormeloxifene, (−)-3,4-trans-7-methoxy-2,2-dimethyl-3-phenyl-4-[4-[2-(pyrrolidin-1-yl)ethoxy]phenyl]chromane] | about 7 times | 7.4 fold | concentration-dependent activity | 5350 µM | 1030 µM | – |
| – | – | – | – | – | – | COc1ccc2c(c1)OC(C)(C)C(c1ccccc1)C2c1ccc(OCCN2CCCC2)cc1 (stereo not drawn) [Centchroman, ormeloxifene] | – | – | – | – | – | about 168 hours |
